Assay results taken from ChEMBL document CHEMBL2057122, “Synthesis and positive inotropic evaluation of N-(1-oxo-1,2,4,5-tetrahydro-[1,2,4]triazolo[4,3-a]quinolin-7-yl)acetamides bearing piperazine and 1,4-diazepane moieties” (Bioorg Med Chem Lett, 2012).
Active and inactive are the calls of the source. The calls are words filed in the database; no cut-off is given here.

What was measured:
Oryctolagus cuniculus [1] = species on record: Oryctolagus cuniculus; assay: Positive inotropic effect in New Zealand White rabbit beating left atrium assessed as increase in stroke volume at 30 uM/L by electrocardiogram analysis; format: functional, tissue-based; details: Cardiac atrium
[2] = (§1) Positive inotropic effect in New Zealand White rabbit left atrium assessed as increase in stroke volume at 3 X 10^-5 M by electrocardiogram analysis; format: functional, Oryctolagus cuniculus, Cardiac atrium
[3] = Chronotropic effect in New Zealand White rabbit left atrium assessed as change in heart rate by electrocardiogram analysis relative to control; format: tissue-based, Oryctolagus cuniculus, Cardiac atrium
Oryctolagus cuniculus [4] = species on record: Oryctolagus cuniculus; assay: Positive inotropic effect in New Zealand White rabbit left atrium assessed as increase in stroke volume at 1 X 10^-4 M by electrocardiogram analysis; format: functional, tissue-based; details: Cardiac atrium
Oryctolagus cuniculus [5] = species on record: Oryctolagus cuniculus; assay: as §1; format: functional; details: Cardiac atrium

SMILES | Activity (Oryctolagus cuniculus [1]) | Activity [2] | Activity [3] | Activity (Oryctolagus cuniculus [4]) | Activity (Oryctolagus cuniculus [5])
Cc1ccc(CN2CCCN(CC(=O)Nc3ccc4c(c3)CCc3n[nH]c(=O)n3-4)CC2)cc1 | inactive | 6.75% | 111.86 bpm | – | –
O=C(CN1CCN(Cc2cccc(Cl)c2)CC1)Nc1ccc2c(c1)CCc1n[nH]c(=O)n1-2 | inactive | 3.46% | – | – | –
O=C(CN1CCCN(Cc2ccc(Cl)cc2)CC1)Nc1ccc2c(c1)CCc1n[nH]c(=O)n1-2 | inactive | 15.48% | 121.68 bpm | inactive | –
Cc1[nH]c(=O)c(C#N)cc1-c1ccncc1 [MILRINONE] | inactive | 2.46% | – | – | –
O=C(CN1CCN(Cc2ccccc2Br)CC1)Nc1ccc2c(c1)CCc1n[nH]c(=O)n1-2 | – | – | – | – | inactive
O=C(CN1CCCN(Cc2cccc(Cl)c2)CC1)Nc1ccc2c(c1)CCc1n[nH]c(=O)n1-2 | inactive | 6.41% | 120.84 bpm | – | –
O=C(CN1CCN(Cc2ccc(Br)cc2)CC1)Nc1ccc2c(c1)CCc1n[nH]c(=O)n1-2 | – | – | – | – | inactive
Cc1ccc(CN2CCN(CC(=O)Nc3ccc4c(c3)CCc3n[nH]c(=O)n3-4)CC2)cc1 | inactive | 5.48% | – | – | –
O=C(CN1CCN(Cc2ccccc2Cl)CC1)Nc1ccc2c(c1)CCc1n[nH]c(=O)n1-2 | inactive | 4.01% | – | – | –
O=C(CN1CCN(Cc2c(Cl)cccc2Cl)CC1)Nc1ccc2c(c1)CCc1n[nH]c(=O)n1-2 | – | – | – | – | inactive
O=C(CN1CCN(Cc2cccc(F)c2)CC1)Nc1ccc2c(c1)CCc1n[nH]c(=O)n1-2 | – | – | – | – | inactive
O=C(CN1CCCN(Cc2ccccc2Cl)CC1)Nc1ccc2c(c1)CCc1n[nH]c(=O)n1-2 | inactive | 8.98% | 118.36 bpm | – | –
COc1ccc(CN2CCN(CC(=O)Nc3ccc4c(c3)CCc3n[nH]c(=O)n3-4)CC2)cc1 | – | 1.46% | – | – | –
O=C(CN1CCN(Cc2ccccc2)CC1)Nc1ccc2c(c1)CCc1n[nH]c(=O)n1-2 | inactive | 3.56% | – | – | –
COc1cc(CN2CCN(CC(=O)Nc3ccc4c(c3)CCc3n[nH]c(=O)n3-4)CC2)ccc1OCc1ccccc1 | – | 2.26% | – | – | –
O=C(CN1CCCN(Cc2ccccc2)CC1)Nc1ccc2c(c1)CCc1n[nH]c(=O)n1-2 | inactive | 9.07% | 90.01 bpm | – | –
O=C(CN1CCN(C/C=C/c2ccccc2)CC1)Nc1ccc2c(c1)CCc1n[nH]c(=O)n1-2 | inactive | 9.4% | 99.89 bpm | inactive | –
O=C(CN1CCN(Cc2ccc(F)cc2)CC1)Nc1ccc2c(c1)CCc1n[nH]c(=O)n1-2 | – | – | – | – | inactive
COc1cc(CN2CCN(CC(=O)Nc3ccc4c(c3)CCc3n[nH]c(=O)n3-4)CC2)ccc1OCc1ccc(Cl)cc1 | – | 2.22% | – | – | –
O=C(CN1CCN(Cc2ccc(Cl)cc2)CC1)Nc1ccc2c(c1)CCc1n[nH]c(=O)n1-2 | inactive | 3.09% | – | – | –
O=C(CN1CCN(Cc2ccccc2F)CC1)Nc1ccc2c(c1)CCc1n[nH]c(=O)n1-2 | – | 1.82% | – | – | –
O=C(CN1CCN(Cc2cccc(Br)c2)CC1)Nc1ccc2c(c1)CCc1n[nH]c(=O)n1-2 | – | – | – | – | inactive
